According to ChEMBL document CHEMBL1129279, “Structure-antigastrin activity relationships of new spiroglumide amido acid derivatives” (J Med Chem, 1996):

Columns and labels:
[1] = molecular target: Cholecystokinin receptor (Homo sapiens) (UniProt P32239+P32238); experiment: Concentration required to inhibit CCK-A receptor/ Concentration required to inhibit CCK-B receptor; type: protein assay
[2] = molecular target: T1, Cholecystokinin receptor type A (Rattus norvegicus, UniProt P30551); experiment: Inhibition of [125I]CCK-8 binding to Cholecystokinin type A receptor in rat pancreas
T1 sequence (P30551 whole entry): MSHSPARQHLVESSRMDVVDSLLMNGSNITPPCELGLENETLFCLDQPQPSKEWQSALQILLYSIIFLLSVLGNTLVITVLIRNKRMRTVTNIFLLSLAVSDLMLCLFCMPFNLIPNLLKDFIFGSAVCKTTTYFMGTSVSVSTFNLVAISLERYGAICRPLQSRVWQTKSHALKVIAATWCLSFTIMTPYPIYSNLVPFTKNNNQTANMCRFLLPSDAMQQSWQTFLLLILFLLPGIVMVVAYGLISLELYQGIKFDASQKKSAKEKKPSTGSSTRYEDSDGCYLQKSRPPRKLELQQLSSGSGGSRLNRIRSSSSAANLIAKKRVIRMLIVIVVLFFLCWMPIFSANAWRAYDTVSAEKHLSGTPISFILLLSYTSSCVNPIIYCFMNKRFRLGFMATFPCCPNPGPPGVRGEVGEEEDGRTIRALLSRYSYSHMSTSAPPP

[3] = molecular target: Gastrin/cholecystokinin type B receptor (Cavia porcellus); experiment: Inhibition of binding of [3H]N-Me-N-Leu-CCK-8 to cholecystokinin type B receptor in guinea pig brain cortex

Cholecystokinin receptor (Homo sapiens), sequence (P32238 whole entry, looked up): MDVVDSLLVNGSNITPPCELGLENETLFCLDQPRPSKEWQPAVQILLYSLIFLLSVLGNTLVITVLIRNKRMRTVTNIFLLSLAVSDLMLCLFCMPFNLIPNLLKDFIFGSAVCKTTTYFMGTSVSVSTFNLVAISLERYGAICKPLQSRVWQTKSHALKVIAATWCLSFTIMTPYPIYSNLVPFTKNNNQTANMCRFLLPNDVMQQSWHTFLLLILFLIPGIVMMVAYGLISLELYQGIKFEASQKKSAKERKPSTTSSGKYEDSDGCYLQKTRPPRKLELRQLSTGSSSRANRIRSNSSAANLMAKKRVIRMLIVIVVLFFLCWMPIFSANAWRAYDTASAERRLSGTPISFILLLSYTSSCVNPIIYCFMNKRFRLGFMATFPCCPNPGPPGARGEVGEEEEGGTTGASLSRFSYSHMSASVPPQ
Cholecystokinin receptor (Homo sapiens), sequence (P32239 whole entry, looked up): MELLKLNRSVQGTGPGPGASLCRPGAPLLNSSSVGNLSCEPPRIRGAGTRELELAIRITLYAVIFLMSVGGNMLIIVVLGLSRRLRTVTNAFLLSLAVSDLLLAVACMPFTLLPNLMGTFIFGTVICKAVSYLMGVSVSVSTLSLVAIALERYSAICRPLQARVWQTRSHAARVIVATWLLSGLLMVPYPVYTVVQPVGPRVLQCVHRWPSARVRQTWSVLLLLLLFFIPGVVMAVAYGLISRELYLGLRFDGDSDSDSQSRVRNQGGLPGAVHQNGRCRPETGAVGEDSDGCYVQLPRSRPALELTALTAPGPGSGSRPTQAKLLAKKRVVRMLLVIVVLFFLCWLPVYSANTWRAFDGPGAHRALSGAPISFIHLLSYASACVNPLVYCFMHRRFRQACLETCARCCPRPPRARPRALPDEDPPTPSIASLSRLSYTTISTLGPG

Structure (SMILES)	IC50 (Oryctolagus cuniculus)	Ratio [1]	IC50 [2] [µM]	also measured
O=C(CCC(NC(=O)c1cc(Cl)cc(Cl)c1)C(=O)N1CCC2(CCCC2)CC1)N[C@@H](Cc1ccccc1)C(=O)O (stereo partly drawn)	Not Active	–	–	–
O=C(O)CC[C@H](NC(=O)CCC(NC(=O)c1cc(Cl)cc(Cl)c1)C(=O)N1CCC2(CCCC2)CC1)C(=O)Nc1cccc2ccccc12 (stereo partly drawn)	–	369	7.38	–
CN(C(=O)CCC(NC(=O)c1cc(Cl)cc(Cl)c1)C(=O)N1CCC2(CCCC2)CC1)[C@H](Cc1c[nH]c2ccccc12)C(=O)O (stereo partly drawn)	–	–	3.4	–
O=C(O)CC[C@@H](NC(=O)c1cc(Cl)cc(Cl)c1)C(=O)N1CCC2(CCCC2)CC1 [SPIROGLUMIDE]	–	9.6	–	IC50 [3]: 1.4 µM

Further lines, with some results ahead:

IC50 (Oryctolagus cuniculus)	Ratio [1]	IC50 [2] [µM]	Structure (SMILES)	also measured
Not Active	–	–	O=C(O)CC[C@@H](NC(=O)CCC(NC(=O)c1cc(Cl)cc(Cl)c1)C(=O)N1CCC2(CCCC2)CC1)C(=O)NCCC12C[C@H]3C[C@@H](C1)C[C@@H](C2)C3 (stereo partly drawn)	–
Not Active	–	–	O=C(O)CC[C@@H](NC(=O)CCC(NC(=O)c1cc(Cl)cc(Cl)c1)C(=O)N1CCC2(CCCC2)CC1)C(=O)NC1[C@H]2C[C@@H]3C[C@@H](C[C@H]1C3)C2 (stereo partly drawn)	–
